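Method: 48-hour compound exposure of cells in 96-well plates, five concentrations, linear interpolation of endpoints. TGI marks complete inhibition of growth.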 A value given as a limit tells only on which side of the number the result lay.

Some test systems named below: CAKI-1 renal; DMS 273 small cell lung; HL-60(TB) leukemia; HOP-92 NSCLC; KM12 colon; LXFL 529 NSCLC; SK-MEL-28 melanoma; SK-MEL-5 melanoma; UACC-257 melanoma; DU-145 prostate.
Holding throughout (assay): NCI anticancer screen, dose series, 48 h

In the case of `O=C(COC(=O)c1cccc2c(=O)c3ccccc3[nH]c12)Nc1ccc(S(=O)(=O)Nc2ncccn2)cc1`, the TGI in the test on CAKI-1 renal is more than 100 µM; in the test with DMS 273 small cell lung it was more than 100 µM; with HL-60(TB) leukemia, 71.3 µM; in the test with HOP-92 NSCLC, 51 µM; in the test on KM12 colon it was more than 100 µM; in the test on LXFL 529 NSCLC it was more than 100 µM. Further, the TGI with SK-MEL-28 melanoma, in the test on SK-MEL-5 melanoma and in the test with UACC-257 melanoma was more than 100 µM each time.

In the case of `CC(=O)OC1(C#N)CC2OC1C1N=NN(C(=O)OC(C)(C)C)C21` (stereo not given), the TGI with CAKI-1 renal is more than 31.6 µM; in the test with DMS 273 small cell lung, more than 100 µM; with HL-60(TB) leukemia, 79.4 µM; in the test with HOP-92 NSCLC it was more than 31.6 µM; in the test with KM12 colon, more than 100 µM; with LXFL 529 NSCLC, more than 100 µM. The TGI in the test on SK-MEL-28 melanoma was 35.6 µM; in the test with SK-MEL-5 melanoma, more than 31.6 µM; in the test with UACC-257 melanoma, more than 31.6 µM.

In the case of `COC(=O)c1ccc(/C=C/S(=O)(=O)c2ccccc2)cc1`, the TGI with CAKI-1 renal, in the test with DMS 273 small cell lung, in the test with HL-60(TB) leukemia, with HOP-92 NSCLC, with KM12 colon and in the test with LXFL 529 NSCLC was more than 100 µM each time. In addition, the TGI in the test with SK-MEL-28 melanoma, with SK-MEL-5 melanoma and with UACC-257 melanoma was more than 100 µM throughout.

In the case of `COC(=O)C1=C(O)c2cc3c(cc2[C@H](c2cc(OC)c(OC)c(OC)c2)C1)OCO3`, the TGI in the test with CAKI-1 renal was more than 100 µM; in the test on DMS 273 small cell lung, more than 100 µM; in the test with HL-60(TB) leukemia it was 67.6 µM; with HOP-92 NSCLC, more than 100 µM; in the test on KM12 colon, 54.3 µM; with LXFL 529 NSCLC, more than 100 µM. Also, the TGI with SK-MEL-28 melanoma is more than 100 µM; in the test on SK-MEL-5 melanoma, 61.1 µM; with UACC-257 melanoma, 95.1 µM.

Consider `CCOc1ccc(N=Cc2ccc3ccccc3n2)cc1`, for which the TGI is more than 100 µM in the test on CAKI-1 renal; more than 100 µM with DMS 273 small cell lung; more than 76.8 µM in the test on HL-60(TB) leukemia; more than 100 µM with HOP-92 NSCLC; more than 100 µM with KM12 colon; more than 100 µM with LXFL 529 NSCLC. Besides, the TGI in the test on SK-MEL-28 melanoma, in the test on SK-MEL-5 melanoma and in the test with UACC-257 melanoma was more than 100 µM each time.

For the compound `Cc1ccc(-c2cc(=O)c3cc(C)c(C)c(C(=O)O)c3o2)cc1[N+](=O)[O-]`, the TGI in the test with CAKI-1 renal, in the test on DMS 273 small cell lung, in the test with KM12 colon, with LXFL 529 NSCLC, in the test on SK-MEL-28 melanoma and with SK-MEL-5 melanoma was more than 100 µM in each case. The TGI in the test on UACC-257 melanoma was more than 100 µM.

For the compound `CCN(CC)CCC(=O)N1C/C(=C/c2ccccc2)C(=O)/C(=C\c2ccccc2)C1`, the TGI in the test with CAKI-1 renal turned out to be 5.08 µM; with DMS 273 small cell lung, 3.15 µM; with DU-145 prostate, 12.5 µM; in the test with HL-60(TB) leukemia it was 1.62 µM; with HOP-92 NSCLC, 17 µM; in the test on KM12 colon, 2.51 µM. Moreover, the TGI with LXFL 529 NSCLC is 3.27 µM; in the test with SK-MEL-28 melanoma it was 4.16 µM; in the test on SK-MEL-5 melanoma it was 3.98 µM; in the test with UACC-257 melanoma, 4.98 µM.

Regarding `CCCCCCC/C=C1\CCC(CN(C)C)C1=O` (stereo not given), the TGI in the test on CAKI-1 renal was determined as 31.6 µM; in the test on DU-145 prostate it was 27.8 µM; in the test with HL-60(TB) leukemia it was 9.09 µM; in the test on HOP-92 NSCLC it was 33.7 µM; with KM12 colon, 13.9 µM; in the test with LXFL 529 NSCLC, 20.8 µM. In addition, the TGI in the test with SK-MEL-28 melanoma came out at 31 µM; with SK-MEL-5 melanoma, 34 µM; in the test with UACC-257 melanoma it was 29.4 µM.

On to `COc1ccc2c(c1OC)C(C=C(c1ccccc1)c1ccccc1)CN(C)C2` (stereo not given), for which the TGI with CAKI-1 renal is 45.3 µM; in the test with DMS 273 small cell lung, 34.9 µM; with HOP-92 NSCLC, 40.1 µM; in the test on KM12 colon, 48.9 µM; in the test with LXFL 529 NSCLC, 34.7 µM; in the test with SK-MEL-28 melanoma, 57.9 µM. Also, the TGI stood at 29.7 µM in the test with SK-MEL-5 melanoma and 54.8 µM in the test with UACC-257 melanoma.

For the compound `Fc1ccc2c(c1)cc1ccc3cccc4ccc2c1c34`, the TGI in the test with CAKI-1 renal, in the test with DMS 273 small cell lung, in the test with HL-60(TB) leukemia, in the test with HOP-92 NSCLC, with KM12 colon and in the test on LXFL 529 NSCLC was more than 100 µM throughout. In addition, the TGI in the test with SK-MEL-28 melanoma, in the test on SK-MEL-5 melanoma and with UACC-257 melanoma was more than 100 µM throughout.

For `CC(=O)Oc1cc(Cl)c(OC(C)=O)c2c(OC(C)=O)c(C)c(O[Si](C)(C)C(C)(C)C)cc12`, the TGI in the test with CAKI-1 renal was 30.7 µM; in the test with DMS 273 small cell lung it was 20 µM; in the test on HL-60(TB) leukemia, 8.89 µM; in the test with HOP-92 NSCLC, 20 µM; in the test on KM12 colon, 26.1 µM; in the test with SK-MEL-28 melanoma, 11.9 µM. Besides, the TGI in the test on SK-MEL-5 melanoma was 14.6 µM; in the test on UACC-257 melanoma, 11.6 µM.

Regarding `CC(CCC(=O)O)c1ccc(Br)cc1` (stereo not given), the TGI in the test with CAKI-1 renal, in the test with DMS 273 small cell lung, in the test with HL-60(TB) leukemia, in the test with KM12 colon, with LXFL 529 NSCLC and in the test on SK-MEL-28 melanoma was more than 100 µM each time. For the same compound, the TGI in the test with SK-MEL-5 melanoma and in the test with UACC-257 melanoma was more than 100 µM in each case.

Consider `C/C(=N\NS(=O)(=O)c1c(C)cc(C)cc1C)c1ccc[n+]([O-])n1`, for which the TGI is 18.1 µM in the test with CAKI-1 renal; 34.8 µM in the test on DMS 273 small cell lung; 25.1 µM in the test with HL-60(TB) leukemia; 22.8 µM in the test with HOP-92 NSCLC; more than 100 µM in the test on KM12 colon; 23.4 µM with LXFL 529 NSCLC. Moreover, the figures for the TGI in the test on SK-MEL-28 melanoma, in the test on SK-MEL-5 melanoma and in the test on UACC-257 melanoma were 27.6 µM, more than 100 µM and 22.7 µM, respectively.

Take `[N-]=[N+]=NC1C2CC3CC(C2)CC1C3` (stereo not given): the TGI in the test with CAKI-1 renal, with DMS 273 small cell lung, in the test with HOP-92 NSCLC, with KM12 colon, in the test on LXFL 529 NSCLC and in the test with SK-MEL-28 melanoma was more than 100 µM each time. For the same compound, the TGI in the test on SK-MEL-5 melanoma and in the test with UACC-257 melanoma was more than 100 µM throughout.

Take `OCCCCCNc1ccnc2cc(Cl)ccc12`: the TGI in the test with CAKI-1 renal, with DMS 273 small cell lung, in the test on HL-60(TB) leukemia, in the test on HOP-92 NSCLC, in the test with KM12 colon and with LXFL 529 NSCLC was more than 100 µM throughout. The TGI in the test on SK-MEL-28 melanoma, with SK-MEL-5 melanoma and in the test on UACC-257 melanoma was more than 100 µM each time.

The record behind these values is PubChem BioAssay (NCI).
